Data on 1 compound can be found in BindingDB's records for patent US20240246937 (Merck Sharp & Dohme, 2024).

The target of this assay is T1, L-amino-acid oxidase (Homo sapiens, UniProt Q96RQ9).
T1 sequence (Q96RQ9 whole entry): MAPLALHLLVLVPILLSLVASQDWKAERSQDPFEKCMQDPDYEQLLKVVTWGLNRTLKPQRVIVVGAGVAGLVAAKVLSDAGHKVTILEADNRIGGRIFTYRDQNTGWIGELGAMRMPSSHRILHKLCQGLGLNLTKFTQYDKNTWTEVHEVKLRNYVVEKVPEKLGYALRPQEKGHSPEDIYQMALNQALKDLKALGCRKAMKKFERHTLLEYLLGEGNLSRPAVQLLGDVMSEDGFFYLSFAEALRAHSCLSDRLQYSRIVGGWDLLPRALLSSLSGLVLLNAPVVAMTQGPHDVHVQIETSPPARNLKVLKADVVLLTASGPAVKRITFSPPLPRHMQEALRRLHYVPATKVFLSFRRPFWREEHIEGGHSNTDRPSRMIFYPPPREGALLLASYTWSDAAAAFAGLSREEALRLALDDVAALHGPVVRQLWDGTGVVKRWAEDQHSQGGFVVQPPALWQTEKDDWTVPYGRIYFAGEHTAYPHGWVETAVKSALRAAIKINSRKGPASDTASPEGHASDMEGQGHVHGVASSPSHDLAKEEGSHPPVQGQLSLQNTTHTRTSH
The assay is described as follows: IL4I1 Enzymatic Assay. The method, then: Using this assay, the potency (EC50) of each compound was determined from a ten-point (1:3 serial dilution) titration curve using the following outlined procedure. To each well of a black flat-bottom Greiner (Cat #781076) 384 well-plate, 25 nL of compound (0.1% DMSO in final assay volume of 25 μL) was dispensed, followed by the addition of 12.5 μL of 1× assay buffer (50 mM Hepes 7.0 and 0.005% Tween20 (Sigma, Cat #P8341; low peroxide grade)) containing 2 nM of recombinant IL4I1 (R&D Systems, Cat #5684-AO-020). Plates were placed in an ambient temperature humidified chamber for a four-hour pre-incubation with compound. Subsequently, each reaction was initiated by the addition of 12.5 μL 1× assay buffer containing 2 mM of each aromatic amino acids (Phe/Tyr/Trp), 0.1 mM Amplex Red and 2 U/mL of HRP. The final reaction in each well of 25 μL consisted of 1 nM of IL4I1, 1 mM of each residues (Phe, Tyr and Trp), 0.05 mM Amplex Red and 1 U/mL of HRP. It should be noted that the concentrations of Amplex Red and HRP used here were in excess such that the conversion of H2O2 to resorufin product occurred

Broadly, the EC50 is the concentration that produces a half-maximal response. Lower therefore signals a more potent agent. On to `CC1CC(N2CCN(Cc3nnc(-c4ccccc4)s3)C(=O)C2=O)C1` (stereo unspecified) [US20240246937, Example 289], for which the EC50 amounted to 6 nM.
